# Test results: patent US20240156852A1, “CARBON NANOPARTICLE COMPOSITIONS AND METHODS FOR DELIVERING THERAPEUTICS TO SPECIFIC TARGET SITES” (SINON NANO SCIENCES INC., priority 2021, published 2024)
# Details: male, Wistar, rat, in vivo, po
# Experimental: Wistar rats (male, 200-220 g) were obtained from the CPCSEA registered animal vendor. Animals were maintained at temperature of 23±2° C., relative humidity of 30% to 70%, and a 12 h dark-light cycle. All of the animals had free access to water and rodent chow at all times, and all of the experimental animals were fed under the above conditions throughout the acclimatization period. Wistar rats (n=1, Male) were randomly taken for each of the two groups. […] All the rats were fasted for 12 hr before administration. The blood collection was done from retro-orbital plexus using an anticoagulant-coated capillary tube at 0 (pre-dose), 0.25, 0.5, 1, 2, 4, 6, 8, and 24 hr respectively following oral administration from both the rats (Group 1 and 2). At each time point, blood sample (125 μL) was collected in EDTA tubes and tubes were immediately centrifuged at 3000 rpm for 10 min to obtain the plasma. The separated plasma was frozen at −20° C. before analysis.
# The biological samples were thawed at room temperature. After vortexing for 30 seconds, 100 μL of sample was taken into 1.5 mL eppendorf tubes, 600 μL of ice-cold acetonitrile was added to denature the proteins. The tubes were vortexed for 2 minutes followed by centrifugation at 5000 rpm for 10 minutes. […]
compound,measurement,value
CC(=O)O[C@H]1C(=O)[C@@]2(C)[C@H]([C@H](OC(=O)c3ccccc3)[C@]3(O)C[C@H](OC(=O)[C@H](O)[C@@H](NC(=O)c4ccccc4)c4ccccc4)C(C)=C1C3(C)C)[C@]1(OC(C)=O)CO[C@@H]1C[C@@H]2O [Paclitaxel],plasma concentrations (below quantitation limits),< 0.0312 µg/mL
